From PubChem BioAssay (NCI)
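Results reflect a 48-hour exposure of cells in 96-well plates to compound at five concentrations. TGI denotes the concentration required for complete inhibition of growth.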

Columns and labels:
Assay in all cases: growth of human tumour cells (NCI), 48 h
K-562 leukemia = system: K-562 leukemia
HT29 colon = system: HT29 colon
OVCAR-8 ovarian = system: OVCAR-8 ovarian
PC-3 prostate = system: PC-3 prostate
CAKI-1 renal = system: CAKI-1 renal
BT-549 breast = system: BT-549 breast
M14 melanoma = system: M14 melanoma
HL-60(TB) leukemia = system: HL-60(TB) leukemia
SK-MEL-28 melanoma = system: SK-MEL-28 melanoma
UACC-62 melanoma = system: UACC-62 melanoma
IGROV1 ovarian = system: IGROV1 ovarian
UO-31 renal = system: UO-31 renal
786-0 renal = system: 786-0 renal
HCC-2998 colon = system: HCC-2998 colon
U251 CNS = system: U251 CNS
LOX IMVI melanoma = system: LOX IMVI melanoma
HCT-15 colon = system: HCT-15 colon
KM12 colon = system: KM12 colon
MDA-MB-231 breast = system: MDA-MB-231 breast
OVCAR-5 ovarian = system: OVCAR-5 ovarian
MALME-3M melanoma = system: MALME-3M melanoma
MDA-N = system: MDA-N
SF-268 CNS = system: SF-268 CNS
SR leukemia = system: SR leukemia
ACHN renal = system: ACHN renal
NCI/ADR-RES ovarian = system: NCI/ADR-RES ovarian
SNB-19 CNS = system: SNB-19 CNS
MDA-MB-435 = system: MDA-MB-435
CCRF-CEM leukemia = system: CCRF-CEM leukemia
NCI-H23 lung = system: NCI-H23 lung
SF-539 CNS = system: SF-539 CNS
T-47D breast = system: T-47D breast
SW-620 colon = system: SW-620 colon
HS 578T breast = system: HS 578T breast
COLO 205 colon = system: COLO 205 colon
OVCAR-3 ovarian = system: OVCAR-3 ovarian
SN12C renal = system: SN12C renal
MOLT-4 leukemia = system: MOLT-4 leukemia
NCI-H226 lung = system: NCI-H226 lung
A549 NSCLC = system: A549 NSCLC
RPMI-8226 leukemia = system: RPMI-8226 leukemia
OVCAR-4 ovarian = system: OVCAR-4 ovarian
TK-10 renal = system: TK-10 renal
NCI-H460 lung = system: NCI-H460 lung
EKVX NSCLC = system: EKVX NSCLC
SF-295 CNS = system: SF-295 CNS
SK-OV-3 ovarian = system: SK-OV-3 ovarian
HOP-62 NSCLC = system: HOP-62 NSCLC
SK-MEL-5 melanoma = system: SK-MEL-5 melanoma
UACC-257 melanoma = system: UACC-257 melanoma
SK-MEL-2 melanoma = system: SK-MEL-2 melanoma
HOP-92 NSCLC = system: HOP-92 NSCLC
RXF 393 renal = system: RXF 393 renal
SNB-75 CNS = system: SNB-75 CNS
HCT-116 colon = system: HCT-116 colon
DU-145 prostate = system: DU-145 prostate
MCF7 breast = system: MCF7 breast

Measured: TGI

CCOC(=O)C(NC(=O)c1ccccc1)(c1ccc(S(=O)(=O)Nc2onc(C)c2C)cc1)C(F)(F)F (configuration not stated)
> 100 µM: K-562 leukemia | HT29 colon | OVCAR-8 ovarian | PC-3 prostate | CAKI-1 renal | BT-549 breast | M14 melanoma | HL-60(TB) leukemia | SK-MEL-28 melanoma | UACC-62 melanoma | IGROV1 ovarian | UO-31 renal | 786-0 renal | HCC-2998 colon | U251 CNS | LOX IMVI melanoma | HCT-15 colon | KM12 colon | MDA-MB-231 breast | OVCAR-5 ovarian | MALME-3M melanoma | MDA-N | SF-268 CNS | SR leukemia | ACHN renal | NCI/ADR-RES ovarian | SNB-19 CNS | MDA-MB-435 | CCRF-CEM leukemia | NCI-H23 lung | SF-539 CNS | T-47D breast | SW-620 colon | HS 578T breast | COLO 205 colon | OVCAR-3 ovarian | SN12C renal | MOLT-4 leukemia | NCI-H226 lung | A549 NSCLC | RPMI-8226 leukemia | OVCAR-4 ovarian | TK-10 renal | NCI-H460 lung | EKVX NSCLC | SF-295 CNS | SK-OV-3 ovarian | HOP-62 NSCLC | SK-MEL-5 melanoma | UACC-257 melanoma | SK-MEL-2 melanoma | HOP-92 NSCLC | RXF 393 renal | SNB-75 CNS | HCT-116 colon | DU-145 prostate | MCF7 breast
